Measurements as given in the NIST ThermoML archive (doi:10.1021/je0603067).
± gives the expanded uncertainty stated by the source.

Details: Crystal; Heating/Cooling curves

Structure (SMILES)	Triple point temperature
O=C=O [carbon dioxide]	216.56 ± 0.2 K
[N-]=[N+]=O [nitrous oxide]	181.99 ± 0.2 K
FC(F)C(F)(F)F [pentafluoroethane]	173.05 ± 0.2 K
